Results as given in US11992494B2, “Cyclopentathiophene carboxamide derivatives as platelet activating factor receptor antagonists” (Boehringer Ingelheim International GmbH, priority 2021, dated 2024).

Biological target: PAFR (Homo sapiens, UniProt P25105)
Assay: cellular HTRF IP1 assay: inhibition of PAFR activation by PAF C-16 ligand (endpoint assay)
Type: cell-based
Set-up: expressed in transfected cells; host or cells: HEK293
Procedure: The ability of compounds of formula (I) to inhibit the activation of the PAF receptor (PAFR) by the PAF C-16 ligand (PAF) is determined using the following cellular HTRF IP1 assay (IP1 Gq assay kit from Cisbio, Cat. no.: 62IP1APEJ) in assay buffer (1×HBSS, 20 mM Hepes, pH 7.4, 50 mM LiCl and containing 0.1% (w/v) BSA):
Evaluation of the Inhibition of PAFR Activation Using an Endpoint Assay
HEK293 cells overexpressing human PAFR (produced in-house) are seeded into a Poly-D-Lysine coated 384 well white cell culture microtiter assay plate with lid (15.000 cells per well). Subsequently, the plates are incubated over night at 37° C./5% CO2. On the next day, cells are being washed and subsequently, various concentrations of the test compounds (compounds in 100% DMSO; final concentration of DMSO in wells is 1%) are added to the assay plate via Echo 555 acoustic liquid handler. Plates are then incubated with lid for 90 minutes at 37° C./5% CO2. Thereafter, PAF ligand (Cayman Chemical Company, Item no.: 60900) is added at a final concentration of 11 nM. Plates are then incubated with lid for 60 minutes at 37° C./5% CO2. Then, 5 μl per well of Anti-IP1-Antibody-Cryptate solution and 5 μl per well of IP1-d2 solution are added to all wells of the plate and the plate is incubated for another 60 minutes light protected at room temperature. The emissions at 620 nm and 665 nm (Excitation wavelength: 320 nm) are measured using an Envision Reader (PerkinElmer).

[1] = HEK293 cells overexpressing human PAFR, PAF ligand 11 nM, Table 2
[2] = dedicated head-to-head comparison assay run: cyclopropylene vs di-methyl / cyclobutylene analogues

PAFR, sequence (P25105 whole entry): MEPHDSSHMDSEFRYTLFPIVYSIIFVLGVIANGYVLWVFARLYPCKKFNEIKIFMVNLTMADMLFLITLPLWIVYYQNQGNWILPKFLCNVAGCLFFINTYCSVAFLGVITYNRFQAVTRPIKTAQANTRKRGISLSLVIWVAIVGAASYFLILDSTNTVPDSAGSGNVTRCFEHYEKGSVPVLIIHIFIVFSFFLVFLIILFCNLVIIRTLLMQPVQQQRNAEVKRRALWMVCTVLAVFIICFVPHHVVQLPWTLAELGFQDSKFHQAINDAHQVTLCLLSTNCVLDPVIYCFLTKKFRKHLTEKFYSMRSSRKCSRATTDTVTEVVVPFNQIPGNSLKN

IC50 [1] [nM]	IC50 [2] [nM]	IC50 (S-bepafant and its methylated derivatives in the above-mentioned assay) [nM]	Compound
8.4	–	–	Cc1ccccc1C1=NC2(CC2)c2nnc(C)n2-c2sc3c(c21)C[C@H](C(=O)N1CCOCC1)C3 [Example 8, (13′S)-3′-methyl-9′-(2-methylphenyl)-13′-(morpholine-4-carbonyl)-16′-thia-2′,4′,5′,8′-tetraazaspiro[cyclopropane-1,7′-tetracyclo[8.6.0.0^2,6.0^11,15]hexadecane]-1′(10′),3′,5′,8′,11′(15′)-pentaene]
30	–	–	Cc1nnc2n1-c1sc3c(c1C(c1ccccc1Cl)=NC21CC1)C[C@H](C(=O)NC1CCCS(=O)(=O)C1)C3 (stereo partly drawn) [Example 121, (13′S)-9′-(2-chlorophenyl)-N-(1,1-dioxo-1lambda6-thian-3-yl)-3′-methyl-16′-thia-2′,4′,5′,8′-tetraazaspiro[cyclopropane-1,7′-tetra-cyclo[8.6.0.0^2,6.0^11,15]hexadecane]-1′(10′),3′,5′,8′,11′(15′)-pentaene-13′-carboxamide]
15	–	–	Cc1nnc2n1-c1sc3c(c1C(c1ccccc1Cl)=NC21CC1)C[C@H](C(=O)N[C@H]1CCOC1)C3 [Example 78]
–	39	–	Cc1noc(C)c1NC(=O)[C@@H]1Cc2sc3c(c2C1)C(c1ccccc1Cl)=NC(C)(C)c1nnc(C)n1-3 [reference compound]
–	–	> 1000	Cc1nnc2n1-c1sc3c(c1C(c1ccccc1Cl)=N[C@@H]2C)C[C@H](C(=O)N1CCOCC1)C3 [comparative example 1b, reference compound]
6.6	–	–	Cc1nnc2n1-c1sc3c(c1C(c1ccccc1Cl)=NC21CC1)C[C@H](C(=O)NC1CCc2cnn(C)c2C1)C3 (stereo partly shown) [Example 54]
6.9	–	–	CCN(C(=O)[C@@H]1Cc2sc3c(c2C1)C(c1ccccc1Cl)=NC1(CC1)c1nnc(C)n1-3)C1CCOCC1 [Example 83]
2.4	2.3	–	CCCNC(=O)[C@@H]1Cc2sc3c(c2C1)C(c1ccccc1Cl)=NC1(CC1)c1nnc(C)n1-3 [Example 66]
2.1	–	–	Cc1nnc2n1-c1sc3c(c1C(c1ccccc1Cl)=NC21CC1)C[C@H](C(=O)NC1CC(F)(F)C1)C3 [Example 27]
1.3	–	–	Cc1nnc2n1-c1sc3c(c1C(c1ccccc1Cl)=NC21CC1)C[C@H](C(=O)NC1(C)CCCC1)C3 [Example 26]
3.7	–	–	Cc1nnc2n1-c1sc3c(c1C(c1ccccc1Cl)=NC21CC1)C[C@H](C(=O)NC1COCC(F)(F)C1)C3 (stereo partly shown) [Example 43]
5.7	5.5	–	Cc1noc(C)c1NC(=O)[C@@H]1Cc2sc3c(c2C1)C(c1ccccc1Cl)=NC1(CC1)c1nnc(C)n1-3 [Example 128]
7.1	–	–	CO[C@@H]1CC[C@H]1NC(=O)[C@@H]1Cc2sc3c(c2C1)C(c1ccccc1Cl)=NC1(CC1)c1nnc(C)n1-3 [Example 57]
28	–	–	Cc1nnc2n1-c1sc3c(c1C(c1ccccc1Cl)=NC21CC1)C[C@H](C(=O)N[C@H]1C[C@H](S(C)(=O)=O)C1)C3 [Example 113]
0.9	–	–	Cc1nnc2n1-c1sc3c(c1C(c1ccccc1Cl)=NC21CC1)C[C@H](C(=O)N[C@H]1CCc2c(F)cccc21)C3 [Example 92]
1	–	–	Cc1nnc2n1-c1sc3c(c1C(c1ccccc1Cl)=NC21CC1)C[C@H](C(=O)N[C@@H]1CCc2ccccc21)C3 [Example 32]
2.3	–	–	Cc1nnc2n1-c1sc3c(c1C(c1ccccc1Cl)=NC21CC1)C[C@H](C(=O)NC1CCCC(F)(F)C1)C3 (stereo partly shown) [Example 25]

IC50 [1] [nM]	IC50 [2] [nM]	IC50 (S-bepafant and its methylated derivatives in the above-mentioned assay) [nM]	Compound
37	–	–	Cc1nnc2n1-c1sc3c(c1C(c1ccccc1Cl)=NC21CC1)C[C@H](C(=O)NC1(C(C)(C)O)CC1)C3 [Example 122, (13′S)-9′-(2-chlorophenyl)-N-[1-(2-hydroxy-propan-2-yl)cyclopropyl]-3′-methyl-16′-thia-2′,4′,5′,8′-tetraazaspiro[cyclopropane-1,7′-tetracyclo[8.6.0.0^2,6.0^11,15]hexadecane]-1′(10′),3′,5′,8′,11′(15′)-pentaene-13′-carboxamide]
3.9	–	–	Cc1nnc2n1-c1sc3c(c1C(c1ccccc1Cl)=NC21CC1)C[C@H](C(=O)NC1(CO)CCCCC1)C3 [Example 71]
7	–	–	Cc1nnc2n1-c1sc3c(c1C(c1ccccc1Cl)=NC21CC1)C[C@H](C(=O)NC1CCc2cccnc21)C3 (stereo partly shown) [Example 42]
6	–	–	CC[C@@H]1C[C@H]2O[C@@H]1C[C@H]2NC(=O)[C@@H]1Cc2sc3c(c2C1)C(c1ccccc1Cl)=NC1(CC1)c1nnc(C)n1-3 [Example 101]
1.6	–	–	Cc1nnc2n1-c1sc3c(c1C(c1ccccc1Cl)=NC21CC1)C[C@H](C(=O)NC1(C)CCC1)C3 [Example 38]
17	–	–	Cc1nnc2n1-c1sc3c(c1C(c1cc(Cl)ccc1Cl)=NC21CC1)C[C@H](C(=O)N1CCOCC1)C3 [Example 3, (13′S)-9′-(2,5-dichlorophenyl)-3′-methyl-13′-(morpholine-4-carbonyl)-16′-thia-2′,4′,5′,8′-tetraazaspiro[cyclopropane-1,7′-tetracyclo[8.6.0.0^2,6.0^11,15]hexadecane]-1′(10′),3′,5′,8′,11′(15′)-pentaene]
52	–	–	Cc1nnc2n1-c1sc3c(c1C(c1ccccc1O)=NC21CC1)C[C@H](C(=O)N1CCOCC1)C3 [Example 9, 2-[(13′S)-3′-methyl-13′-(morpholine-4-carbonyl)-16′-thia-2′,4′,5′,8′-tetraazaspiro[cyclopropane-1,7′-tetracyclo[8.6.0.0^2,6.0^11,15]hexadecane]-1′(10′),3′,5′,8′,11′(15′)-pentaen-9′-yl]phenol]
2.8	–	–	Cc1nnc2n1-c1sc3c(c1C(c1ccccc1Cl)=NC21CC1)C[C@H](C(=O)N1CC(C)(C)C1)C3 [Example 65]
3.9	–	–	Cc1nnc2n1-c1sc3c(c1C(c1ccccc1Cl)=NC21CC1)C[C@H](C(=O)N[C@H]1COCC(F)(F)C1)C3 [Example 116]
6.6	–	–	Cc1nnc2n1-c1sc3c(c1C(c1ccccc1Cl)=NC21CC1)C[C@H](C(=O)N(C)C1CCOCC1)C3 [Example 37]
–	30	–	Cc1nnc2n1-c1sc3c(c1C(c1ccccc1Cl)=NC2(C)C)C[C@H](C(=O)N1CCC(F)(F)CC1)C3 [reference compound]
6.4	–	–	Cc1nnc2n1-c1sc3c(c1C(c1ccccc1Cl)=NC21CC1)C[C@H](C(=O)NC1CCC(C)(C)OC1)C3 (stereo partly shown) [Example 94]
–	26	–	Cc1nnc2n1-c1sc3c(c1C(c1ccccc1Cl)=NC2(C)C)C[C@H](C(=O)NC1(c2ccccn2)CC1)C3 [reference compound]
–	87	–	Cc1nnc2n1-c1sc3c(c1C(c1ccccc1Cl)=NC2(C)C)C[C@H](C(=O)N(C)[C@H]1CC[C@H](O)CC1)C3 [reference compound]
1.6	–	–	Cc1nnc2n1-c1sc3c(c1C(c1ccccc1Cl)=NC21CC1)C[C@H](C(=O)NC1[C@H]2CCC[C@@H]12)C3 (stereo partly shown) [Example 19]
5.2	–	–	Cc1nnc2n1-c1sc3c(c1C(c1ccccc1Cl)=NC21CC1)C[C@H](C(=O)N1CCOC(C)(C)C1)C3 [Example 10]

Compound	IC50 [1] [nM]	IC50 [2] [nM]	IC50 (S-bepafant and its methylated derivatives in the above-mentioned assay) [nM]
Cc1nnc2n1-c1sc3c(c1C(c1ccccc1Cl)=NC21CC1)C[C@H](C(=O)N[C@H]1CCc2ccccc2C1)C3 [Example 58]	0.4	–	–
Cc1nnc2n1-c1sc3c(c1C(c1ccccc1Cl)=NC21CC1)C[C@H](C(=O)NC1CCc2ccc(F)cc21)C3 (stereo partly shown) [Example 22]	0.6	–	–
